The target of assay [1] is T1, interaction of Pin1 with JIP3 (Homo sapiens, UniProt Q13526).
T1 construct: made in house; FLAG-JIP3: lysate of transfected 293T cells
The assay is described as follows: GST-Pin1 pulldown with increasing Pintide, Pin1-JIP3 interaction. The format is binding. Further details: dose or concentration left out as unconfirmed. Conditions: lysates of 293T cells transfected with FLAG-JIP3, Pintide 0, 2.5, 5, 10, 25. The protocol: (§1) FIG. 2G is a series of immunoblot photographs. Lysates of 293T cells transfected with FLAG-JIP3 or FLAG-BIMEL together with FLAG-MEKK1Δ were subjected to a GST-Pin1 pulldown assay in the presence of increasing amount of Pintide peptide ([…]), followed by immunoblotting for FLAG and GST. Representative immunoblots of three independent experiments are shown.
(§2) GST-pulldown assays were performed as described by Ryo et al., Mol. Cell 12: 1413-1426, 2003. Immunoprecipitations and subcellular fractionations were performed as described by Konishi et al., Science 303: 1026-1030, 2004. The postnuclear supernatant was further centrifuged at 10,000 g for 30 min to pellet the mitochondrially-enriched heavy membrane (HM) fraction. Antibodies to BIM (Stressgen); phospho65 BIM antibody (Biosource); HA, HSP60, JIP3, GST (Santa Cruz Biotechnology); FLAG (Sigma); P-c-Jun, MKK7, Pin1 (Cell Signaling); SP1, JNK (Upstate); GFP (Molecular Probes) are available commercially.
(§3) Thus, similar to BIMEL, JIP3 interacts with Pin1 in a phosphorylation-dependent manner.

Assay [2] deals with T2, interaction of Pin1 with BIMEL (Homo sapiens, UniProt Q13526).
T2 construct: made in house; FLAG-BIMEL: lysate of 293T cells co-transfected with FLAG-MEKK1Δ
Nature of the assay: GST-Pin1 pulldown with increasing Pintide, Pin1-BIMEL interaction. The following applies: lysates of 293T cells transfected with FLAG-BIMEL and FLAG-MEKK1Δ, Pintide 0, 2.5, 5, 10, 25, 50 mM. It is filed as binding. How it is done: as §1, §2, §3

For the next assay, the target named is Pin1 (Homo sapiens, UniProt Q13526). The following applies: Daum et al. 2006; cited from earlier work.
A further assay deals with JNK signaling. Nature of the assay: JNK signaling in cerebellar granule neurons (phosphorylation of c-Jun and BIMEL). Conditions: granule neurons treated for 5 h with 5 μM MG132. The format is cell-based, rat. The protocol: FIG. 1C is a series of immunoblot photographs. Lysates of cerebellar granule neurons untreated or treated for 5 h with 5 μM MG132 were subjected to a pulldown with GST-Pin1 WW, followed by immunoblotting for BIM. Lower panels show the expression of BIMEL and phosphorylated c-Jun.
The phosphorylation of BIMEL at Ser65 triggers apoptosis specifically in neurons but not in non-neural cells. A critical regulatory post-phosphorylation event is the prolyl isomerization of proteins at sites of proline-dependent phosphorylation. A major function of Pin1 is to drive cells through mitosis in proliferating cells. Pin1 is also highly expressed in the nervous system. To assess whether Pin1 binds to Ser65-phosphorylated BIMEL in vitro, we used a GST pulldown assay. We expressed BIMEL in 293T cells alone or together with a constitutively active form of the kinase MEKK1 (MEKK1Δ), an upstream activator of JNK. Expression of MEKK1Δ results in the robust phosphorylation of BIMEL at Ser65, which is reflected by a mobility shift of BIMEL (FIG. 1A). Recombinant GST-Pin1, but not GST, specifically co-precipitated phosphorylated but not unphosphorylated BIMEL from cell lysates (FIG. 1A). […] In other experiments, we tested if a recombinant GST fusion protein containing the WW domain of Pin1 associates with BIMEL. The WW domain of Pin1 interacts specifically with phosphoSer/Thr-Pro motifs. […]

Assay [3] deals with interaction of Pin1 and JIP3. The assay is described as follows: Co-immunoprecipitation of endogenous Pin1 and JIP3 in granule neurons. The format is cell-based, rat. Conditions: exposure of granule neurons to JNK activating stimuli.
Description: Lysates from granule neurons that were kept in conditioned full medium (CM) or starved for 2 h (Starv) were immunoprecipitated using a JIP3 antibody, followed by immunoblotting for Pin1. Left panels show the expression of JIP3 and Pin1.
To determine whether the binding of Pin1 to JIP3 is regulated by an apoptotic stimulus, we measured the interaction of endogenous Pin1 and JIP3 in granule neurons that were left in full medium (conditioned medium, CM) or that were starved for two hours.

The source of these data is patent US7786090B2, “Methods and compositions for treating and preventing neurologic disorders” (President and Fellows of Harvard College, priority 2006, dated 2010).

Square brackets hold non-standard residues; d marks the D form. Ends that are not written are not given here. Peptide text beside a SMILES is read from it. * marks the point of attachment. pS = N[C@@H](COP(=O)(O)O)C(=O)O; Cbz = O=C(OCc1ccccc1)*

Sequence of Pin1 (Q13526 whole entry, species assumed): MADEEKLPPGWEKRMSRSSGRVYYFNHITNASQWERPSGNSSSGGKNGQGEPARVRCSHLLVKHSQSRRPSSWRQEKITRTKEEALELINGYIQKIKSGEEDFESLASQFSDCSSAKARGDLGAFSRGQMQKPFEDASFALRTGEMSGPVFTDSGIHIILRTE
T2 sequence (Q13526 whole entry): as the sequence (Q13526 whole entry, species assumed) above
T1 sequence (Q13526 whole entry): as the sequence (Q13526 whole entry, species assumed) above

On to WFYpSPRLKK (WFY[pS]PRLKK) [Pintide], for which the “disruption of the interaction of Pin1 with JIP3” value in assay [1] is “disrupted the interaction of Pin1 with JIP3 and BIMEL in a dose-dependent manner”. Besides, in assay [2], the “disruption of the interaction of Pin1 with BIMEL” value is “disrupted the interaction of Pin1 with JIP3 and BIMEL in a dose-dependent manner”.
Regarding `COc1ccc(F)cc1C(=O)[C@]1(C)CCc2ccccc21` [(R)-9], the “inhibition of Pin1” value at Pin1 is “inhibit Pin1”.
As to `COc1ccc(F)cc1C(=O)C1(C)CCc2ccccc21` (racemic) [rac-9], at Pin1, the “inhibition of Pin1” value is “inhibit Pin1”.
Take `CC(C)C[C@@H](C=O)NC(=O)[C@H](CC(C)C)NC(=O)[C@H](CC(C)C)NC(=O)OCc1ccccc1` [MG132] (Cbz-Leu-Leu-Leu-aldehyde): the JNK signaling entry in the assay with JNK signaling is listed as “activated JNK signaling”. Further, the “interaction of Pin1 and JIP3” value in assay [3] is given as “led to a decrease”.
Take `OO` [hydrogen peroxide]: in assay [3], the “interaction of Pin1 and JIP3” value is given as “led to a decrease”.
